Experimental data from patent US6759520B1, “Chimeric analgesic peptides” (priority 1999, dated 2004).

Columns and labels:
Sprague Dawley rats [1] = experiment: Tail flick test after intrathecal administration; format: in vivo, rat; details: for change in analgesia, antagonist alone: control experiment, p>0.05
Experimental: (§1) ESP7 was tested clinically in rats to determine analgesic effect and tolerance. The classical tail flick test was used to measure pain response and thermal pain was mimicked using a heat source. This system was controlled using standard opioids. The drug was administered with cyclodextran to increase solubility of the peptide in an aqueous solution.
Adult male Sprague Dawley rats (200-250 g) were implanted with chronic indwelling intrathecal catheters using a modified protocol of Yaksh and Rudy, Physiol. Behav., 17: 1031-1036 (1976). […] The rats were anesthetized throughout the surgery with 5.0% isoflurane. The catheter was inserted through the alanto-occipital membrane and into the intrathecal space using a guide wire. Sutures were used to secure the placement of the catheter. The rats were allowed to recover from surgery for 3-4 days and any rats with neurological impairment were not used for analgesic measurements. Rats were housed separately in a 12 hr light-dark cycle with free access to food and water. During their recovery from surgery, rats were habituated to the laboratory environment and analgesic testing apparatus.
For measurement of the thermal anti-nociceptive properties of the peptides of interest, the tail flick test was employed. Rats were first habituated to the tail flick chamber. During testing, the rats were placed in the chamber and a light source, which generated heat, was directed at their tail. The latency to remove the tail was recorded. The baseline latency was approximately 3.5 sec and the cutoff latency was 10 sec to avoid tissue damage. Three measurements were made at each pre- and post-treatment time point and the results were averaged. Responses were expressed as % maximum possible effect: […]
Rats were given doses of 1.0 μg (FIG. 5), 0.2 μg (FIG. 6), and 0.05 μg (FIG. 7) of ESP7. The desired concentration of the compound (in 10 μl) was injected into the catheter followed by 10 μl saline flush to fill the dead volume. ESP7 was combined with two molecules of cyclodextrin (ESP7+2CD) to increase solubility. […]

Sprague Dawley rats [2] = experiment: Tail flick test after intracerebroventricular administration; format: in vivo, rat; details: 1.0 μg intracerebroventricular; data not shown
Experimental: as §1
Adult male Sprague Dawley rats weighing 200-250 g were used. Before surgery, the rats were anesthesized with 0.2-0.3 mL of xylazine (10%) and ketamine (90%). Rats were positioned in a stereotaxic apparatus and the bregma was located. To reach the lateral ventricle, a hole was drilled 0.8 mm caudal and 1.4-1.5 mm left or right of the bregma. The catheter was inserted 4.5 mm deep into the brain and 4.0 cm of polyethylene tubing was connected to the end to the catheter. Screws and dental cement were used to secure the catheter in place. After suturing the skin, the rats were allowed to recover from surgery for 4-5 days. Each rat was housed separately in a 12 hr light-dark cycle with free access to food and water. Rats with any neurological problems were not used in the analgesic testing.
The tail flick assay was used to measure analgesia as described above in Example 2.1. Briefly, the rats were first habituated to the tail flick chamber. […] The latency to remove the tail was recorded. […] Responses were expressed as % maximum possible effect (MPE): [formula]

μ receptor = biological target: T1, μ receptor (Rattus norvegicus, UniProt P33535); experiment: μ receptor binding assay, [3H]DAMGO competition, crude rat brain plasma membranes
T1 construct: frozen rat brains (−80° C.) were homogenized in 40 volumes of standard Tris buffer; from tissue; host or cells: rat brain (crude plasma membranes)
Experimental: For binding assays to opioid receptors, frozen rat brains (−80° C.) were homogenized in 40 volumes of standard Tris buffer (50 mM Tris HCl (pH 7.4), 0.2 mg/ml BSA, 2.5 mM EDTA, 40 μg/ml bacitracin, 30 μg/ml bestatin and 5 mM MgCl2) and centrifuged at 15,000×g for 20 minutes. 100 mM NaCl was added to the buffer, in order to remove endogenous ligands, and the centrifugation was repeated. After a wash with standard buffer, the membrane preparation was finally resuspended in 10 volumes of incubation buffer (standard buffer with 4 μg/ml leupeptin and 2 μg/ml chymostatin). […] The brain homogenates were used on the day of preparation.
Binding assays for the μ receptor were performed at 4° C. for 90 minutes, as described in Zadina et al., Life Sci, 55: 461-466 (1994). […] After incubation the samples were filtered on a Brandell-Harvester using an appropriate GF/B filter soaked in 50 mM Tris HCl (pH 7.4) and 0.5% PEI. Scintillation fluid was added to the filters in order to solubilize the membranes, and a beta-counter was used to quantify radioactivity.

NK1 receptor = biological target: T2, NK1 receptor (Rattus norvegicus, UniProt P14600); experiment: SP (NK1) receptor binding assay, [125I]BH-SP competition, crude rat brain plasma membranes
T2 construct: The same procedure was followed for the SP receptor except the wash with NaCl was eliminated; from tissue; host or cells: rat brain (crude plasma membranes)

rats = experiment: Tail flick test after intraperitoneal administration; format: in vivo, rat; details: 1 mg intraperitoneal
Experimental: as §1
ESP7 was administered intraperitoneally in order to assess the effectiveness of ESP7 systemically. The tail flick assay was used to measure analgesia as described above in Example 2.1. Briefly, the rats were first habituated to the tail flick chamber. During testing, the rats were placed in the chamber and a light source, which generated heat, was directed at their tail. The latency to remove the tail was recorded. The baseline latency was approximately 3.5 sec and the cutoff latency was 10 sec to avoid tissue damage. Three measurements were made at each pre- and post-treatment time point and the results were averaged. Responses were expressed as % maximum possible effect (MPE): [formula]

T2 sequence (P14600 whole entry): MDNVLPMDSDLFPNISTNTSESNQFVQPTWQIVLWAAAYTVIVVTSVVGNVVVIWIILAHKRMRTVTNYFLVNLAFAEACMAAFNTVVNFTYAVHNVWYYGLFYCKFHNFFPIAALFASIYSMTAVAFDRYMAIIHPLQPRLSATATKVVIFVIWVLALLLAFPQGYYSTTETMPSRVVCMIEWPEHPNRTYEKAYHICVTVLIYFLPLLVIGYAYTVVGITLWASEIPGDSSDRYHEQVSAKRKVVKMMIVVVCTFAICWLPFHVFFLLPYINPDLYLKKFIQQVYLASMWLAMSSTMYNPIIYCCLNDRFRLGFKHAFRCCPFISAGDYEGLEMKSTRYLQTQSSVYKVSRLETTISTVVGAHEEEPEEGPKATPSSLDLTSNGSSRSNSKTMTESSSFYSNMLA
T1 sequence (P33535 whole entry): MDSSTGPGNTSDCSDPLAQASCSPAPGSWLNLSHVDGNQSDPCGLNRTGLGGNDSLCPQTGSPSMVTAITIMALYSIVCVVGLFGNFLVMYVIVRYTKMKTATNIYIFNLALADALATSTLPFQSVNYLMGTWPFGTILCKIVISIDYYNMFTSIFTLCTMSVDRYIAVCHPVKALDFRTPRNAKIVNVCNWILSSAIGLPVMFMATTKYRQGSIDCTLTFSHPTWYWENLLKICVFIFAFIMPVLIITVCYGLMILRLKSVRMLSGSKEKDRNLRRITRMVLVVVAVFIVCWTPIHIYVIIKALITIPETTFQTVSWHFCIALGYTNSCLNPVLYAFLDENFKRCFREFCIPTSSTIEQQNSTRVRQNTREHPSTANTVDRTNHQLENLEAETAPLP

Compound | change in analgesia, antagonist alone (Sprague Dawley rats [1]) | hyperalgesia when naltrexone is given with ESP7+2CD (Sprague Dawley rats [1]; naltrexone with 0.2 μg and 1.0 μg ESP7+2CD intrathecal) | analgesia (tail flick, % MPE) (Sprague Dawley rats [2]) | Kd (μ receptor) [nM] | Kd (NK1 receptor) [nM] | analgesia (tail flick, % MPE) (rats)
COc1ccccc1CC(=N)N1C[C@@H]2C(=O)CCC(c3ccccc3)(c3ccccc3)[C@@H]2C1 [RP67580] | no effect on the level of analgesia | – | – | – | – | –
O=C1CC[C@@]2(O)[C@H]3Cc4ccc(O)c5c4[C@@]2(CCN3CC2CC2)[C@H]1O5 [naltrexone] | produced no change in analgesia | produced some hyperalgesia | – | – | – | –
H-YPFFGLM-NH2 [ESP7, Tyr-Pro-Phe-Phe-Gly-Leu-Met-NH2] | – | – | produced analgesia | ~300 | ~200 | produced analgesia as seen with intrathecal administration
